Entries after “also recorded” stand apart in the source; their conditions may differ.
Legend:
[1] = test system: primary osteoblasts collected from fetal mouse calvaria; experiment: Alkaline phosphatase (ALP) activity in primary osteoblasts under suboptimal BMP-2; type: cell-based
Protocol: The peptide of SEQ ID No. 8 was added to this culture system at 0, 0.2, 0.4, 1.0, 2.0, and 4.0 μM. The levels of ALP were evaluated on days 0, 3, and 7.

COX-2 [2] = experiment: Gene expression microarray analysis in Clonetics hMSC cells (COX-2 mRNA); type: cell-based, human; conditions: for COX-2 mRNA increase: 1000 ng/ml peptide
Protocol: Materials and Methods: The effect of the peptide of SEQ ID No. 8 treatment on gene expression was assessed in the Clonetics hMSC cells using gene expression microarray analysis as previously described (Locklin et al., 2001). Briefly, cells were plated in five T-150 vented flasks at a density of 1.0×10^6 cells per flask in growth medium and cultured at 37° C. for 48 hours. Flasks containing either vehicle alone or the peptide of SEQ ID No. 8 (1000 ng/ml) were cultured for 24 hr or for 48 h in standard differentiation medium. At each time point, the vehicle and treatment flasks were trypsinized, cells removed and total RNA was extracted for analysis via the Qiagen Rneasy Kit (Qiagen). 8 μg of total RNA were amplified and biotin labeled. The mixture was hybridized to a U95A human gene expression microarray (Affymetrix) containing probes for 12,600 human genes. The chips were then washed, stained with phycoerythrin-streptavidin and read with an Affymetrix scanner. Hybridization intensity values to mRNA frequency were calculated in molecules per million. Analysis of intensity values was conducted using Spotfire Decision Site (Somerville, Mass.) software.

[3] = test system: MC3T3-E1 subclone 4 cells; experiment: BMP-2 stimulated PGE2 production by MC3T3 cells (ELISA); type: cell-based, mouse; conditions: suboptimal rhBMP-2 plus varying doses of peptide, 24 hours; FIG. 2
Protocol: Methods: MC3T3-E1 subclone 4 cells are neonatal mouse derived calvarial preosteoblasts with fibroblast morphology. […] For this experiment the MC3T3 cells were plated 10^5 cells per well in 24 well plates in growth medium (alpha MEM+1 mM sodium pyruvate+10% fetal bovine serum (FBS)). After 24 hours of culture the media was removed and replaced with assay media (alphaMEM+1 mM sodium pyruvate+2% FBS) containing the test substances. Each test group utilized 4 wells. After incubation for a further 24 hours the media was removed and the levels of PGE2 were determined using an ELISA (R&D Systems).

Smad1/5/8 = experiment: Phosphorylation of Smad1/5/8 by Western blotting in primary osteoblasts; type: cell-based, mouse; conditions: 2 uM peptide added to 25 ng/mL BMP-2; FIG. 3
Protocol: Phosphorylation of Smad1/5/8 was evaluated by Western blotting at 0, 0.5, 1, 2, 12, 24, 48 and 72 hours.

[4] = test system: hemi-calvariae from 4 day old Swiss Webster mice; experiment: Mouse calvaria organ culture assay (PGE2, new bone formation histology); type: cell-based; conditions: peptide 1, 10, 100 μg/mL daily for seven days
From the text: Methods: Calvarial organ cultures have been used for many years to study the regulation of bone formation and bone resorption. An advantage of this method compared to in vivo studies is the absence of confounding effects (such as hormonal and mechanical influences) meaning a more direct effect of the test substances on bone tissue can be determined. Also compared to isolated cell systems, interrelationships between the different cell types in the bone and between these cells and the bone matrix are preserved.
Briefly, hemi-calvariae were isolated from 4 day old Swiss Webster mice and incubated in media on steel mesh grids. The peptide of SEQ ID NO. […] Samples of the conditioned media were collected daily for analysis of PGE2 concentration (R&D Systems ELISA kit). At the end of the culture the bones were analyzed for new bone formation and number of osteoblasts using histology.

[5] = test system: dorsal muscle of mice (ICR); experiment: Ectopic bone formation from polymer pellets implanted in mouse dorsal muscle; type: in vivo
From the text: The mice were sacrificed 3 weeks later and the newly formed bones were isolated for evaluation using soft X-ray radiograph and bone mineral density determination.

human mesenchymal cells = experiment: PGE2 in human mesenchymal cells in culture; type: cell-based; conditions: peptide alone
[6] = test system: hard tissue forming cells; experiment: General activity statements on hard tissue forming cells
COX-2 [7] = conditions: Nagel et al., Journal of Cellular Biochemistry, 2004; cited from earlier work
[8] = test system: hemi-calvariae from 4 day old Swiss Webster mice; conditions: Middleton-Hardie et al., ASBMR 2005; cited from earlier work
[9] = 2 μM peptide with 25 ng/mL BMP-2

Sequence: TDLQERGDNDISPFSGDGQPFKD [SEQ ID No. 8]
- ALP activity increase as compared with BMP-2 treated cells without addition of the peptide [1, 9]: ~2 times
- ALP activity increase as compared with the control group [1, 9]: about 3 times
- ALP activity in osteoblastic cells ([1]; BMP-2 (suboptimal, 25 ng/mL) plus peptide 0.2-4.0 μM, FIG. 1): significantly increased; also recorded: dose dependent upregulation
- COX-2 mRNA increase (COX-2 [2]; 24 h): 3.6 fold
- COX-2 mRNA increase (COX-2 [2]; 48 h): 2.2 fold
- mRNA for cyclooxygenase-2 (COX-2) increase, summary (COX-2 [2]; discussion summary of both time points): ~3 fold
- BMP-2 induced PGE2 production [3]: increases; also recorded: dose dependent production
- time over which phosphorylation of Smad1/5/8 was detectable (Smad1/5/8): 0.5 to 48 h
- PGE2 production ([4]; FIG. 4): significant increases
- bone cell density ([4]; FIG. 5): significant increases
- new bone formation ([4]; FIG. 5): significant increases
- osteoblast surface ([4]; FIG. 5): significant increases
- enhancement of the BMP-2 effects on bone formation (size and mineral density of ectopic ossicles) ([5]; 3 ug BMP-2 in 30 mg polymer, peptide 0-1250 ug, three weeks): significant enhancement
- efficacy of the peptide on bone formation (size and mineral density of ectopic ossicles) ([5]; 5 ug BMP-2 in 30 mg polymer, peptide 0-1250 ug, three weeks): unclear
- increase in bone formation ([5]; peptide added to suboptimal dose, 3 μg of rhBMP-2): significant and dose dependent increase
- increase in PGE2 (human mesenchymal cells): did not result in a significant increase
- biological activities for the purpose of this invention, relative ranking [6]: highest activities
- COX-2 in human mesenchymal stem cells (COX-2 [7]): upregulated
- production of PGE2 in mouse calvaria organ culture assay [8]: dose dependently upregulated

— US7622438B1, “Protein formulation for promoting hard tissue formation” (Acologix, Inc., priority 2005, dated 2009)
